Patent US10501493B2, “Broad spectrum antibiotics” (priority 2011, dated 2019)
In brackets after ≈: the same amount, converted by molar mass. Where two headings read alike, the source gives them in different places.

Experiments:
[1] = test system: S. epidermidis RP62A SpsIB(S31P); assay: In vitro antimicrobial activity, MIC by broth micro-dilution; format: cell-based
[2] = test system: R. equi DSM 6939; assay: as above; format: cell-based
In short: (§1)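 CLSI broth micro-dilution MIC against two-fold serial compound dilutions. Inoculum came from colonies grown 24 h at 35° C. or 28° C., suspended in cation-adjusted Mueller Hinton broth at 1*10^7 CFU/ml, of which 5 μl was added per 100 μl well. LepB(P84L) is a proline-mutant SPase strain with heightened arylomycin susceptibility.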

[3] = test system: S. pneumoniae R800; assay: as above; format: cell-based
In short: as §1

[4] = test system: C. glutamicum DSM 44475; assay: as above; format: cell-based
[5] = test system: S. agalactiae COH-1; assay: as above; format: cell-based; settings: S. agalactiae COH-1
[6] = test system: S. epidermidis ATCC 12228; assay: as above; format: cell-based
[7] = test system: S. pyogenes ATCC 19615; assay: as above; format: cell-based
[8] = test system: P. aeruginosa PA01 LepB(P84L); assay: as above; format: cell-based
In short: as §1

[9] = test system: S. pyogenes M15448; assay: as above; format: cell-based; settings: S. pyogenes M15448
In short: as §1

[10] = test system: S. aureus ATCC 29213; assay: as above; format: cell-based
[11] = test system: P. aeruginosa PA01; assay: as above; format: cell-based; settings: Pseudomonas aeruginosa, read-out: MIC
In short: as §1

[12] = test system: S. agalactiae ATCC 13813; assay: as above; format: cell-based
[13] = test system: S. epidermidis RP62A; assay: as above; format: cell-based; settings: S. epidermidis RP62A
[14] = test system: E. coli MIG1655; assay: as above; format: cell-based; settings: Escherichia coli, MIG1655
In short: as §1

[15] = test system: E. coli MIG1655 LepB(P84L); assay: as above; format: cell-based
In short: as §1

[16] = test system: S. epidermidis RP62A SpsIB(S29P); assay: as above; format: cell-based
[17] = test system: S. pneumoniae D39; assay: as above; format: cell-based; settings: S. pneumoniae D39
[18] = test system: S. aureus NCTC-8325 SpsB(P295); assay: as above; format: cell-based
[19] = biological target: T1, S. aureus SPase (Staphylococcus aureus, UniProt P0A070); assay: Steady state binding constant (Kd) determination by fluorescence increase
T1 construct: Full length His-tagged S. aureus SPase protein was expressed similarly; His-tag; made in house; host or cells: E. coli BL21(DE3)
Method: (§2) Full length His-tagged E. coli SPase proteins were expressed in E. coli BL21(DE3) containing the plasmid pET23-lepB, P. A. Smith et al. Chem Biol 2010, 1223-1231. Briefly, saturated overnight cultures grown in 20 ml of Luria-Bertani medium supplemented with ampicillin were subcultures into 1.5 L of Luria-Bertani, and shaken at 37° C. until an optical density at 600 nm of 0.4-0.5 was achieved. Protein expression was induced with Isopropyl β-D-1-thiogalactopyranoside (ITPG) at a final concentration of […], and purified using nickel affinity chromatography. Full length His-tagged S. aureus SPase protein was expressed similarly from E. coli BL21(DE3) containing the plasmid pCDF1-SaSpsB or pCDF1-SaSpsB(P29S) and purified similarly to the E. coli protein with the following exceptions. SPase protein was solubilized using 300 mM NaCl, 20 mM Tris pH 8.06, 5 mM Imidazole, 10% glycerol, 1% Triton X-100, prior to purification in Ni-NTA Superflow resin and resin bound protein was washed in a similar buffer containing 1% Elugent in place of Triton X-100 prior to protein eluted in wash buffer supplemented with 300 mM imidazole. Protein purify was judged to exceed 95% by visual inspection of SDS-PAGE followed by Comassie staining. All protein concentrations were determined by BCA assay.
(§3) Steady state binding constants (Kds) of compounds were determined by measuring an increase in fluorescence (λex=280 nm, λem=405 nm) that occurs upon binding to E. coli or S. aureus SPase protein. Two-fold serial dilutions of compounds were prepared in 100% DMSO, and compounds were diluted into binding buffer consisting of 100 mM NaCl, 20 mM Tris-HCl pH 7.4, 1 mM EDTA, 1% n-octyl-3-glucopyranoside (Anatrace), and 10% glycerol, with the final DMSO concentration equal to 1%. 70 μl of the resulting solutions containing various concentrations of compound in binding buffer were aliquoted into triplicate wells of a black polystyrene 384-well plate. 5 μl of blank solution or E. coli or S. aureus protein at concentrations of 750 or 3750 nM respectively, were added to each set of wells for a given inhibitor concentration. Plates were incubated for 14 hours and fluorescence read on an EnVision Multilable plate reader (Perkin Elmer™). Differences in fluorescence values between wells with and without protein were determined and background corrected for protein auto fluorescence. The corrected fluorescence difference data was fit to the quadratic equilibrium binding curve using the non-linear regression analysis software Solver (Frontline Systems®) run in Excel 2010, (Microsoft®), using experimentally determined quantum efficiency constants to convert fluorescence into nanomoles of protein/compound complex.

[20] = biological target: T2, E. coli SPase (Escherichia coli, UniProt P00803); assay: as above
T2 construct: Full length His-tagged E. coli SPase proteins were expressed in E. coli BL21(DE3); His-tag; made in house; host or cells: E. coli BL21(DE3)
Method: as §2, §3

[21] = Rhodococcus (subgen. Prescottella) equi, DSM6939, read-out: MIC
[22] = Streptococcus pneumoniae, read-out: MIC
[23] = Corynebacterium glutamicum, DSM44475, read-out: MIC
[24] = Streptococcus agalactiae, COH1, read-out: MIC
[25] = Staphylococcus epidermidis, ATCC12228, read-out: MIC
[26] = Streptococcus pyogenes, ATCC19615, read-out: MIC
[27] = Streptococcus pyogenes, read-out: MIC
[28] = Staphylococcus aureus, ATCC29213, read-out: MIC
[29] = Streptococcus agalactiae, ATCC13813, read-out: MIC
[30] = Staphylococcus epidermidis, read-out: MIC
[31] = Staphylococcus aureus, NCTC8325

Row | SMILES | MIC ([1]; Staphylococcus epidermidis) [µg/mL] | MIC [2, 21] [µg/mL] | MIC [3, 22] [µg/mL] | MIC [4, 23] [µg/mL] | MIC [5, 24] [µg/mL] | MIC [6, 25] [µg/mL] | MIC [7, 26] [µg/mL] | MIC ([8]; Pseudomonas aeruginosa) [µg/mL] | MIC [9, 27] [µg/mL] | MIC [10, 28] [µg/mL] | MIC [11] [µg/mL] | MIC [12, 29] [µg/mL] | MIC [13, 30] [µg/mL] | MIC [14] [µg/mL] | MIC ([15]; Escherichia coli) [µg/mL] | MIC ([16]; Staphylococcus epidermidis) [µg/mL] | MIC [17, 22] [µg/mL] | MIC [18, 31] [µg/mL] | Kd [19] [nM] | Kd [20] [nM] | other results
1 | CCCCCCCCCCCCCCCC(=O)N(C)[C@H](CO)C(=O)N[C@H](C)C(=O)NCC(=O)N(C)[C@@H]1C(=O)N[C@@H](C)C(=O)N[C@H](C(=O)NC(C)C=O)Cc2ccc(O)c(c2)-c2cc1ccc2O (some centres unmarked) [Compound 33] | 64 (≈ 68.4 µM) | 64 (≈ 68.4 µM) | 32 (≈ 34.2 µM) | 64 (≈ 68.4 µM) | 64 (≈ 68.4 µM) | > 64 | 16 (≈ 17.1 µM) | > 64 | 16 (≈ 17.1 µM) | > 64 | > 64 | > 64 | 64 (≈ 68.4 µM) | > 64 | 64 (≈ 68.4 µM) | 64 (≈ 68.4 µM) | 32 (≈ 34.2 µM) | 64 (≈ 68.4 µM) | – | – | –
2 | CCCCCCCCCCCCCCCC(=O)N(C)[C@H](CO)C(=O)N[C@H](C)C(=O)NCC(=O)N(C)[C@@H]1C(=O)N[C@@H](C)C(=O)N[C@H](C(=O)NCC(=O)O)Cc2ccc(O)c(c2)-c2cc1ccc2O [Compound 24] | > 64 | > 64 | 8 (≈ 8.53 µM) | 64 (≈ 68.2 µM) | > 64 | 32 (≈ 34.1 µM) | 8 (≈ 8.53 µM) | 32 (≈ 34.1 µM) | 16 (≈ 17.1 µM) | > 64 | – | 64 (≈ 68.2 µM) | 2 (≈ 2.13 µM) | – | 4 (≈ 4.26 µM) | > 64 | 4 (≈ 4.26 µM) | 32 (≈ 34.1 µM) | 2900 | 1100 | –
3 | CCCCCCCCCCCCCCCC(=O)N(C)[C@H](CO)C(=O)N[C@H](C)C(=O)NCC(=O)N(C)[C@@H]1C(=O)N[C@@H](C)C(=O)N[C@H](C(=O)O)Cc2ccc(O)c(c2)-c2cc1ccc2O [Compound 1, arylomycin C16] | > 64 | 16 (≈ 18.2 µM) | 8 (≈ 9.08 µM) | 8 (≈ 9.08 µM) | > 64 | 2 (≈ 2.27 µM) | 16 (≈ 18.2 µM) | 8 (≈ 9.08 µM) | 16 (≈ 18.2 µM) | > 64 | > 64 | 16 (≈ 18.2 µM) | 0.3 (≈ 0.34 µM) | > 64 | 1 (≈ 1.13 µM) | 8 (≈ 9.08 µM) | 4 (≈ 4.54 µM) | 4 (≈ 4.54 µM) | 750 | 75 | –
4 | CCCCCCCCCCCCCCCC(=O)N(C)[C@H](CO)C(=O)N[C@H](C)C(=O)NCC(=O)N(C)[C@@H]1C(=O)N[C@@H](C)C(=O)N[C@H](C(=O)N[C@@H](C)C(=O)NS(C)(=O)=O)Cc2ccc(O)c(c2)-c2cc1ccc2O [Compound 23] | – | – | – | – | – | – | – | – | – | – | – | – | – | – | – | – | – | – | – | – | Kd ([19]; in vitro equilibrium Kd, read-out: Kd S. aureus SPase): 8900 nM; Kd ([20]; in vitro equilibrium Kd, read-out: Kd E. coli SPase): 3000 nM; MIC ([1]; S. epidermidis RP62A SpsIB(S31P)): >64 µg/mL; MIC [2]: >64 µg/mL; MIC [3]: 8 µg/mL (≈ 7.77 µM); MIC [4]: 8 µg/mL (≈ 7.77 µM); MIC [5]: >64 µg/mL; MIC [6]: 8 µg/mL (≈ 7.77 µM); MIC [7]: 16 µg/mL (≈ 15.5 µM); MIC ([8]; P. aeruginosa PA01 LepB(P84L)): >64 µg/mL; MIC [9]: 16 µg/mL (≈ 15.5 µM); MIC [10]: >64 µg/mL; MIC [12]: 32 µg/mL (≈ 31.1 µM); MIC [13]: 2 µg/mL (≈ 1.94 µM); MIC ([15]; E. coli MIG1655 LepB(P84L)): 8 µg/mL (≈ 7.77 µM); MIC ([16]; S. epidermidis RP62A SpsIB(S29P)): 16 µg/mL (≈ 15.5 µM); MIC [17]: 8 µg/mL (≈ 7.77 µM); MIC ([18]; S. aureus NCTC-8325 SpsB(P295)): 8 µg/mL (≈ 7.77 µM)
